Assay results: US11000033B2, “Ketone or oxime compound, and herbicide” (NISSAN CHEMICAL CORPORATION, priority 2014, dated 2021)

Key:
Type in all cases: in vivo
Scirpus juncoides = experiment: Test Example 1: herbicidal activity, application before weed generation in submerged conditions (symbol B); conditions: application herbicide amount 320 g/ha
In short: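 Flooded alluvial soil (4 cm water) was mixed-sown with the three weed species, and 2.5-leaf rice seedlings were transplanted. On sowing day, a water-diluted emulsion at a predetermined rate was applied to the water surface. After 3 weeks in a 25–30 °C greenhouse, effect was scored 0–5.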

transplanted rice plant = experiment: Test Example 1: effect on crop, application before weed generation in submerged conditions (symbol a); conditions: application herbicide amount 320 g/ha
In short: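 Alluvial soil pots flooded to 4 cm water, sown with Echinochloa oryzacola, Scirpus juncoides and Monochoria vaginalis, then transplanted with 2.5 leaf stage rice seedlings; pre-emergence application. Greenhouse 25° C. to 30° C.; scored 0–5 by herbicidal ratio 3 weeks after application.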

Monochoria vaginalis = experiment: Test Example 2: herbicidal activity, application during weed generation in submerged conditions (symbol C); conditions: Table 23; application herbicide amount 320 g/ha; grade 0-5 by criteria of Test Example 1
In short: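 Each pot contained alluvial soil under 4 cm of water with seeds of all three weeds sown together. Following growth at 25° C. to 30° C. to the one- to two-leaf stage, the floodwater received diluted emulsion at a predetermined amount; visual assessment followed at 3 weeks.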

Alopecurus myosuroides [1] = experiment: Test Example 4: herbicidal effect by soil treatment (symbol J); conditions: for J: Alopecurus myosuroides, herbicidal effect grade: 320 g/ha; for J (Alopecurus myosuroides) herbicidal effect grade: application herbicide amount 320 g/ha
In short: (§1)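 Seeds were sown in sterilized diluvial soil, covered with about 1.5 cm of soil, and the soil surface was sprayed with a water-diluted emulsion of the compound at a predetermined rate. Plants grew in a greenhouse at 25° C. to 30° C.; effects were scored visually 3 weeks after application.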

Lolium multiflorum Lam. = experiment: Test Example 4: herbicidal effect by soil treatment (symbol K); conditions: for K: Lolium multiflorum Lam., herbicidal effect grade: 320 g/ha; for K (Lolium multiflorum Lam.) herbicidal effect grade: application herbicide amount 320 g/ha
In short: as §1

soybean = experiment: Test Example 4: effect on crop by soil treatment (symbol d); conditions: for d: soybean, effect grade on crop: 320 g/ha; for d (soybean) effect on crop grade: application herbicide amount 320 g/ha
In short: (§2)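 Greenhouse culture at 25° C. to 30° C. followed sowing of seed in spots on sterilized diluvial soil with a soil cover close to 1.5 cm thick.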

rice = experiment: Test Example 4: effect on crop by soil treatment (symbol b); conditions: for b: directly sowed rice plant, effect grade on crop: 320 g/ha; for b (directly sowed rice plant) effect on crop grade: application herbicide amount 320 g/ha
In short: as §2

wheat = experiment: Test Example 4: effect on crop by soil treatment (symbol e); conditions: for e: wheat, effect grade on crop: 320 g/ha; for e (wheat) effect on crop grade: application herbicide amount 320 g/ha
In short: as §2

Digitaria ciliaris = experiment: Test Example 5: herbicidal effect by foliage application, plastic box (symbol F); conditions: 320 g/ha, 3 weeks after application
In short: (§3)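 After sowing into sterilized diluvial soil and growing two weeks under glass at 25° C. to 30° C., seedlings receive a uniform foliar spray of diluted emulsion. Damage is judged visually three weeks on.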

[2] = test system: Echinochloa crus-galli var. crus-galli; experiment: Test Example 5: herbicidal effect by foliage application, plastic box (symbol H); conditions: 320 g/ha, 3 weeks after application
In short: as §3

Alopecurus myosuroides [3] = experiment: Test Example 5: herbicidal effect by foliage application, plastic box (symbol J); conditions: 320 g/ha, 3 weeks after application
In short: as §3

corn = experiment: Test Example 5: effect on crop by foliage application, plastic box (symbol c); conditions: 320 g/ha, 3 weeks after application
In short: (§4)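 A greenhouse held between 25° C. and 30° C. was used to grow plants sown spot-wise, beneath ~1.5 cm of soil, in boxes of sterilized diluvial soil.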

rapeseed = experiment: Test Example 5: effect on crop by foliage application, plastic box (symbol g); conditions: 320 g/ha, 3 weeks after application
In short: as §4

Row | SMILES | Herbicidal effect grade, B: Scirpus juncoides (Scirpus juncoides) | Effect grade on crop, a: transplanted rice plant (transplanted rice plant) | Herbicidal effect grade, C: Monochoria vaginalis (Monochoria vaginalis) | J: Alopecurus myosuroides, herbicidal effect grade (Alopecurus myosuroides [1]) | K: Lolium multiflorum Lam., herbicidal effect grade (Lolium multiflorum Lam.) | d: soybean, effect grade on crop (soybean) | b: directly sowed rice plant, effect grade on crop (rice) | e: wheat, effect grade on crop (wheat) | F: Digitaria ciliaris, herbicidal effect (criteria 0-5) (Digitaria ciliaris) | H: Echinochloa crus-galli var. crus-galli, herbicidal effect (criteria 0-5) [2] | J (Alopecurus myosuroides) herbicidal effect grade (Alopecurus myosuroides [1]) | K (Lolium multiflorum Lam.) herbicidal effect grade (Lolium multiflorum Lam.) | d (soybean) effect on crop grade (soybean) | b (directly sowed rice plant) effect on crop grade (rice) | e (wheat) effect on crop grade (wheat) | F: Digitaria ciliaris, herbicidal effect grade (Digitaria ciliaris) | H: Echinochloa crus-galli var. crus-galli, herbicidal effect grade [2] | J: Alopecurus myosuroides, herbicidal effect grade (Alopecurus myosuroides [3]) | c: corn, effect on crop grade (corn) | g: rapeseed, effect on crop grade (rapeseed) | also measured
1 | CON=C(C)CC1CC(OC(=O)COCC(F)(F)F)=C(c2c(C)cc(C)cc2C)C1=O (stereo not drawn) [1-092] | 5 (Herbicidal ratio of 90% or more (almost completely withered)) | 5 (Herbicidal ratio of 90% or more (almost completely withered)) | 0 (Herbicidal ratio of 5% or lower (almost no effect)) | 4 (Herbicidal ratio of 70% or higher and lower than 90%) | 5 (Herbicidal ratio of 90% or more (almost completely withered)) | 0 (Herbicidal ratio of 5% or lower (almost no effect)) | 5 (Herbicidal ratio of 90% or more (almost completely withered)) | 4 (Herbicidal ratio of 70% or higher and lower than 90%) | 5 (Herbicidal ratio of 90% or more (almost completely withered)) | 5 (Herbicidal ratio of 90% or more (almost completely withered)) |  |  |  |  |  |  |  |  |  |  | J: Alopecurus myosuroides, herbicidal effect (criteria 0-5) (Alopecurus myosuroides [3]): 4 (Herbicidal ratio of 70% or higher and lower than 90%); c: corn, effect on crop (criteria 0-5) (corn): 5 (Herbicidal ratio of 90% or more (almost completely withered)); g: rapeseed, effect on crop (criteria 0-5) (rapeseed): 4 (Herbicidal ratio of 70% or higher and lower than 90%)
2 | CON=C(C)CC1CC(OC(=O)C=Cc2ccco2)=C(c2c(C)cc(C)cc2C)C1=O (stereo not drawn) [1-091] | 5 (Herbicidal ratio of 90% or more (almost completely withered)) | 4 (Herbicidal ratio of 70% or higher and lower than 90%) | 0 (Herbicidal ratio of 5% or lower (almost no effect)) | 5 (Herbicidal ratio of 90% or more (almost completely withered)) | 5 (Herbicidal ratio of 90% or more (almost completely withered)) | 0 (Herbicidal ratio of 5% or lower (almost no effect)) | 5 (Herbicidal ratio of 90% or more (almost completely withered)) | 4 (Herbicidal ratio of 70% or higher and lower than 90%) | 5 (Herbicidal ratio of 90% or more (almost completely withered)) | 5 (Herbicidal ratio of 90% or more (almost completely withered)) |  |  |  |  |  |  |  |  |  |  | J: Alopecurus myosuroides, herbicidal effect (criteria 0-5) (Alopecurus myosuroides [3]): 5 (Herbicidal ratio of 90% or more (almost completely withered)); c: corn, effect on crop (criteria 0-5) (corn): 5 (Herbicidal ratio of 90% or more (almost completely withered)); g: rapeseed, effect on crop (criteria 0-5) (rapeseed): 4 (Herbicidal ratio of 70% or higher and lower than 90%)
3 | CON=C(C)CC1CC(OC(=O)C(C)(C)OC(C)=O)=C(c2c(C)cc(C)cc2C)C1=O (stereo not drawn) [1-034] | 4 (Herbicidal ratio of 70% or higher and lower than 90%) | 5 (Herbicidal ratio of 90% or more (almost completely withered)) | 3 (Herbicidal ratio of 40% or higher and lower than 70%) |  |  |  |  |  |  |  | 5 (Herbicidal ratio of 90% or more (almost completely withered)) | 5 (Herbicidal ratio of 90% or more (almost completely withered)) | 0 (Herbicidal ratio of 5% or lower (almost no effect)) | 5 (Herbicidal ratio of 90% or more (almost completely withered)) | 4 (Herbicidal ratio of 70% or higher and lower than 90%) | 5 (Herbicidal ratio of 90% or more (almost completely withered)) | 5 (Herbicidal ratio of 90% or more (almost completely withered)) | 5 (Herbicidal ratio of 90% or more (almost completely withered)) | 4 (Herbicidal ratio of 70% or higher and lower than 90%) | 5 (Herbicidal ratio of 90% or more (almost completely withered)) | 
4 | CON=C(C)CC1CC(OC(=O)C(C)Oc2ccccc2)=C(c2c(C)cc(C)cc2C)C1=O (stereo not drawn) [1-060] | 4 (Herbicidal ratio of 70% or higher and lower than 90%) | 5 (Herbicidal ratio of 90% or more (almost completely withered)) | 0 (Herbicidal ratio of 5% or lower (almost no effect)) |  |  |  |  |  |  |  | 5 (Herbicidal ratio of 90% or more (almost completely withered)) | 5 (Herbicidal ratio of 90% or more (almost completely withered)) | 0 (Herbicidal ratio of 5% or lower (almost no effect)) | 5 (Herbicidal ratio of 90% or more (almost completely withered)) | 2 (Herbicidal ratio of 20% or higher and lower than 40%) | 5 (Herbicidal ratio of 90% or more (almost completely withered)) | 5 (Herbicidal ratio of 90% or more (almost completely withered)) | 5 (Herbicidal ratio of 90% or more (almost completely withered)) | 4 (Herbicidal ratio of 70% or higher and lower than 90%) | 4 (Herbicidal ratio of 70% or higher and lower than 90%) | 
5 | CC(CC1CC(O)=C(c2c(C)cc(C)cc2C)C1=O)=NOc1ccccc1 (stereo not drawn) [1-057] | 3 (Herbicidal ratio of 40% or higher and lower than 70%) | 4 (Herbicidal ratio of 70% or higher and lower than 90%) | 0 (Herbicidal ratio of 5% or lower (almost no effect)) |  |  |  |  |  |  |  | 4 (Herbicidal ratio of 70% or higher and lower than 90%) | 5 (Herbicidal ratio of 90% or more (almost completely withered)) | 0 (Herbicidal ratio of 5% or lower (almost no effect)) | 5 (Herbicidal ratio of 90% or more (almost completely withered)) | 0 (Herbicidal ratio of 5% or lower (almost no effect)) | 3 (Herbicidal ratio of 40% or higher and lower than 70%) | 4 (Herbicidal ratio of 70% or higher and lower than 90%) | 3 (Herbicidal ratio of 40% or higher and lower than 70%) | 0 (Herbicidal ratio of 5% or lower (almost no effect)) | 4 (Herbicidal ratio of 70% or higher and lower than 90%) | 
6 | CC(CC1CC(O)=C(c2c(C)cc(C)cc2C)C1=O)=NOC(C)C (stereo not drawn) [1-052] | 5 (Herbicidal ratio of 90% or more (almost completely withered)) | 5 (Herbicidal ratio of 90% or more (almost completely withered)) | 0 (Herbicidal ratio of 5% or lower (almost no effect)) |  |  |  |  |  |  |  | 5 (Herbicidal ratio of 90% or more (almost completely withered)) | 5 (Herbicidal ratio of 90% or more (almost completely withered)) | 0 (Herbicidal ratio of 5% or lower (almost no effect)) | 5 (Herbicidal ratio of 90% or more (almost completely withered)) | 5 (Herbicidal ratio of 90% or more (almost completely withered)) | 5 (Herbicidal ratio of 90% or more (almost completely withered)) | 5 (Herbicidal ratio of 90% or more (almost completely withered)) | 5 (Herbicidal ratio of 90% or more (almost completely withered)) | 4 (Herbicidal ratio of 70% or higher and lower than 90%) | 4 (Herbicidal ratio of 70% or higher and lower than 90%) | 
